Columns and labels:
CYP3A4 = CYP3A4 (Homo sapiens, UniProt P08684); test: Nonclinical drug metabolism studies (CYP substrate); type: in vitro ADME
Protocol: (§1) Tolebrutinib is a substrate of the CYP3A4 and CYP2C8 isoenzymes. […] In healthy participants, the potent CYP3A4 and moderate CYP2C8 induction by rifampicin (600 mg once daily for 8 days) decreased tolebrutinib exposure by 6-fold. Therefore, potent and also moderate (based on prediction) CYP3A inducers are not permitted due to their potential to decrease tolebrutinib exposure and efficacy.
(§2) Potent and moderate inducers of CYP3A or potent inhibitors of CYP2C8 hepatic enzymes are not permitted throughout the study (see Appendix 8A [Section 10.8]). • Tolebrutinib: Tolebrutinib is a substrate of the CYP3A4 and CYP2C8 isoenzymes. […] In healthy participants, potent CYP3A4 and moderate CYP2C8 induction by rifampicin (600 mg once daily for 8 days) decreased Tolebrutinib exposure 6-fold (INT16726 study). Therefore, potent and also moderate (based on prediction) CYP3A inducers are not permitted due to their potential to decrease Tolebrutinib exposure and efficacy. See Table 2H for the list of drugs not to be used. • Teriflunomide: Other potent CYP and transporter inducers should be avoided due to their potential to decrease teriflunomide exposure. Rifampicin and other known potent CYP and transporter inducers such as carbamazepine, phenobarbital, phenytoin, avasimibe, lumacaftor, rifapentine, rifabutin, and St John's wort, should be avoided. […]

CYP2C8 = biological target: T1, CYP2C8 (Homo sapiens, UniProt P10632); test: as above; type: in vitro ADME
T1 sequence (P10632 1-490): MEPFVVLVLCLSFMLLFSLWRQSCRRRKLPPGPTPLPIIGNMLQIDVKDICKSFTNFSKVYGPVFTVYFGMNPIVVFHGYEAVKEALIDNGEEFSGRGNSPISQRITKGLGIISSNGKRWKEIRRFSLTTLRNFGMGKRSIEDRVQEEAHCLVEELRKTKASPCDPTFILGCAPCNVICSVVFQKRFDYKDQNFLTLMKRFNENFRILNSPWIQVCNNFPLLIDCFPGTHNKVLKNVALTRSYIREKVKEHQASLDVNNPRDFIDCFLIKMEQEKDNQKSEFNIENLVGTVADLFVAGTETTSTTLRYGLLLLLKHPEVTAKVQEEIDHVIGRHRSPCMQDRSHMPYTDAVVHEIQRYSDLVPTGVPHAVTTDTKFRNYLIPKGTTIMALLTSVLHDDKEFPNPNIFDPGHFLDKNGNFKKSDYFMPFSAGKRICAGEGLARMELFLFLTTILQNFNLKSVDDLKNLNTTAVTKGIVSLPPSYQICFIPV
Protocol: as §1, §2

[1] = Drug interaction study INT16726: potent CYP2C8 inhibitor gemfibrozil; CYP3A4/CYP2C8 inducer rifampicin, healthy participants; type: in vivo, human
Protocol: as §1, §2

[2] = Phase 2b dose-finding trial DRI15928 in participants with relapsing multiple sclerosis; type: in vivo, human; conditions: for alanine aminotransferase (ALT): 1 participant, normal range 6 to 34 U/L; for time for ALT to return to normal range: treatment continued
From the text: All safety summaries will be descriptive; no statistical significance tests will be performed on safety data. This includes treatment-emergent adverse events (TEAEs) and other safety information (eg, clinical laboratory evaluations, electrocardiograms [ECGs], and vital signs). TEAEs are defined as adverse events (AEs) that developed or worsened or became serious during the treatment period. These analyses will be based on the safety population, defined as all participants randomly assigned and exposed to study intervention, regardless of the amount of exposure, analyzed according to the treatment actually received. • Two participants had treatment-emergent transient alanine aminotransferase (ALT) increase >3×ULN, 1 during the 30 mg SAR442168 treatment period (at Week 8, 105 U/L [normal range 6 to 34 U/L]) that returned to normal range within 4 days and 1 during the 60 mg SAR442168 treatment period (at Week 4, 107 U/L [normal range 6 to 34 U/L]). The participant in the 60 mg group had slightly elevated ALT at screening (48 U/L) and at baseline (50 U/L); ALT levels returned to the normal range in 8 weeks. Both participants continued study treatment during this period. All other liver enzyme levels for both participants were within normal ranges during the treatment period; one event was assessed as related and one as unrelated to the study drug by the Investigators. Both participants completed the DRI15928 study and successfully rolled over to the LTS follow-up study. • One event of mild petechia in a participant (at Week 8 in the SAR442168 30 mg group) and 2 events of mild microscopic hematuria in 2 male participants (1 event at Week 16 in the SAR442168 30 mg group and 1 event on Day 1 in the SAR442168 60 mg group, with occult blood noted in urine) were reported during the treatment period in the SAR442168 Phase 2b trial. The hematology results were clinically insignificant for all 3 participants from the onset of the events. The participant with mild petechia had benign pigmentary lesions noted during screening, and the event was assessed as related to the study drug by the Investigator. The 2 events of mild microscopic hematuria were assessed as unrelated to the study drug.
The choice of the dose of 60 mg of the BTK inhibitor taken with food is based on the results of a Phase 2b dose-finding trial for tolebrutinib in participants with relapsing multiple sclerosis (DRI15928). See for example, Reich, D. S., et al., Safety and efficacy of tolebrutinib, an oral brain-penetrant BTK inhibitor, in relapsing multiple sclerosis: a phase 2b, randomised, double-blind, placebo-controlled trial. Lancet Neurol, 2021. 20(9): p. 729-738.
There were low numbers of AESIs and PCSAs observed.

[3] = Drug interaction study INT16385: potent CYP3A4 inhibitor itraconazole, healthy participants; type: in vivo, human; conditions: with potent CYP3A4 inhibitor itraconazole 200 mg once daily for 4 days
[4] = Study TDR16862: up to 240 mg once daily for 14 days under fed conditions, healthy participants; type: in vivo, human
Protocol: as §1, §2

[5] = Blood-brain barrier crossing
[6] = Ongoing Phase 3 and LTS studies: safety (drug-induced liver injury); type: in vivo, human
From the text: Drug-induced liver injury has been identified in the ongoing tolebrutinib Phase 3 trials. […] Thus, there is a need to mitigate the risk of hepatic injury and provide safe treatment for patients with MS or MG.
All safety summaries will be descriptive; no statistical significance tests will be performed on safety data. This includes treatment-emergent adverse events (TEAEs) and other safety information (eg, clinical laboratory evaluations, electrocardiograms [ECGs], and vital signs). TEAEs are defined as adverse events (AEs) that developed or worsened or became serious during the treatment period. These analyses will be based on the safety population, defined as all participants randomly assigned and exposed to study intervention, regardless of the amount of exposure, analyzed according to the treatment actually received. • Two participants had treatment-emergent transient alanine aminotransferase (ALT) increase >3×ULN, 1 during the 30 mg SAR442168 treatment period (at Week 8, 105 U/L [normal range 6 to 34 U/L]) that returned to normal range within 4 days and 1 during the 60 mg SAR442168 treatment period (at Week 4, 107 U/L [normal range 6 to 34 U/L]). […] All other liver enzyme levels for both participants were within normal ranges during the treatment period; one event was assessed as related and one as unrelated to the study drug by the Investigators. […]

BCRP = biological target: T2, BCRP (Homo sapiens, UniProt Q9UNQ0); conditions: in vitro studies; cited from earlier work
T2 sequence (Q9UNQ0 1-655): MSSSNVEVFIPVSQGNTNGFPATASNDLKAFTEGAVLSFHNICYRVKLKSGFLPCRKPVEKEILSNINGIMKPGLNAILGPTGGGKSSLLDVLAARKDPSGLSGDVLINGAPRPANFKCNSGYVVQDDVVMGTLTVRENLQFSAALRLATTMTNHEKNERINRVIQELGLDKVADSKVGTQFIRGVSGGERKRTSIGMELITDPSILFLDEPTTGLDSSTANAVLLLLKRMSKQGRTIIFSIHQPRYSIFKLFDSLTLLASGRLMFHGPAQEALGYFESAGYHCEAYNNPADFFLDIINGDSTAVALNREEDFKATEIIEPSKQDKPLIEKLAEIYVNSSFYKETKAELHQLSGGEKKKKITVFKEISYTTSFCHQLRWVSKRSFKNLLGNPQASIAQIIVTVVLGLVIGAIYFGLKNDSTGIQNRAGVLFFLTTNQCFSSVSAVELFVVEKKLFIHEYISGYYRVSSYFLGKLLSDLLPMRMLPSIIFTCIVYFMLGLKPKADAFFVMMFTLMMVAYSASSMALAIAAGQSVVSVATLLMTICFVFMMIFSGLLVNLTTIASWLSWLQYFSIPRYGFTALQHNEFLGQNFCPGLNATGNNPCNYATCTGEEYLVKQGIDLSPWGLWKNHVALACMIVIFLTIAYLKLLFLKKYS

[7] = following repeated doses of teriflunomide; cited from earlier work

Chain of CYP3A4 (P08684 whole entry): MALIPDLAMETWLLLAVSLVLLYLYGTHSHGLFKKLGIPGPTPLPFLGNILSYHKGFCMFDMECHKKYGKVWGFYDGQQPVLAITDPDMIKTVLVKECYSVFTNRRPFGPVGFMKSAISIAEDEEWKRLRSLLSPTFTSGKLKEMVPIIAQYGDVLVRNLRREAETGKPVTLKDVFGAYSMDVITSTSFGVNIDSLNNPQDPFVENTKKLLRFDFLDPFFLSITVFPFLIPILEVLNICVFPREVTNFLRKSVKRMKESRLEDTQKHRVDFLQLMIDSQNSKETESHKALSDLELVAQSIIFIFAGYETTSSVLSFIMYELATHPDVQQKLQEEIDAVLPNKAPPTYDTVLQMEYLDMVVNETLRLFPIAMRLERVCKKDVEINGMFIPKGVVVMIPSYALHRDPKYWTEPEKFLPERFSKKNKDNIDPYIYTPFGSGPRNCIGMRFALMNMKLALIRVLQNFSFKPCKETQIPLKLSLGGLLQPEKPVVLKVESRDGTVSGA

Structure (SMILES): C=CC(=O)N1CCC[C@@H](n2c(=O)n(-c3ccc(Oc4ccccc4)cc3)c3c(N)nccc32)C1 [tolebrutinib, (R)-1-(1-acryloylpiperidin-3-yl)-4-amino-3-(4-phenoxyphenyl)-1H-imidazo[4,5-c]pyridin-2(3H)-one]
- substrate of CYP3A4 isoenzyme (CYP3A4): substrate
- substrate of CYP2C8 isoenzyme (CYP2C8): substrate
- decrease of exposure ([1]; potent CYP3A4 and moderate CYP2C8 induction by rifampicin 600 mg once daily for 8 days): 6 fold
- increase of AUC exposure ([1]; with potent CYP2C8 inhibitor gemfibrozil 600 mg twice daily for 6 days): 8.4 fold
- alanine aminotransferase (ALT) ([2]; 30 mg treatment period, Week 8): 105 U/L
- alanine aminotransferase (ALT) ([2]; 60 mg treatment period, Week 4, 48 U/L at screening, 50 U/L at baseline): 107 U/L
- events of mild microscopic hematuria ([2]; 2 male participants: Week 16 in 30 mg group, Day 1 in 60 mg group, resolved spontaneously): 2 events
- cardiac arrhythmia ([2]; ECG monitoring): no clinically significant cardiac arrhythmia was observed
- AESIs and PCSAs observed ([2]; Phase 2b): low numbers
- correlation between dose administered and number of TEAEs ([2]; Phase 2b): no correlation
- new risks identified ([2]; Phase 2b): no new risks were identified
- most frequently reported infections (≥3 events total) ([2]; Phase 2b treatment period): upper respiratory tract infection, nasopharyngitis, gastroenteritis, and respiratory tract infection
- severe infections ([2]; Phase 2b treatment period): No severe infections occurred
- participants with treatment-emergent transient ALT increase >3×ULN ([2]; Phase 2b, 1 at 30 mg, 1 at 60 mg): Two
- food effect: increase in AUC0-24 ([2]; fed status, Phase 2b PK data): approximately 2 fold
- events of mild petechia ([2]; female participant, Week 8, 30 mg group, resolved spontaneously): One
- cytopenia, including thrombocytopenia and neutropenia ([2]; hematologic laboratory results): No clinically significant cytopenia
- correlation between treatment response and exposure ([2]; new gadolinium-enhancing T1-hyperintense lesions after 12 weeks of treatment): higher exposure was associated with low numbers of new gadolinium-enhancing T1-hyperintense lesions
- time for ALT to return to normal range ([2]; participant of the 30 mg treatment period): ≤ 4 days
- time for ALT to return to normal range ([2]; participant of the 60 mg group): 8 weeks
- most common events (preferred terms) ([2]; tolebrutinib treatment arms, Phase 2b): headache, upper respiratory tract infection, and nasopharyngitis
- increase of area under the curve (AUC) exposure [3]: 1.8 fold
- safety and tolerability profile [4]: satisfactory
- blood-brain barrier crossing [5]: crosses the blood-brain barrier
- tolerability ([6]; ongoing Phase 3 and LTS studies, to date): generally well tolerated
- reversibility of DILI / liver enzyme elevation after treatment discontinuation ([6]; ongoing Phase 3 trials): appear reversible

Structure (SMILES): C/C(O)=C(\C#N)C(=O)Nc1ccc(C(F)(F)F)cc1 [teriflunomide]
- substrate of the efflux transporter BCRP (BCRP): substrate
- ethinylestradiol and levonorgestrel exposure [7]: Increase
